The text below walks through data of US12180187B2, “1-phenyl-5-azinylpyrazolyl-3-oxyalkyl acids and their use for controlling unwanted plant growth” (BAYER AKTIENGESELLSCHAFT, priority 2019, dated 2024).

Experiment [1] has as its system LOLRI. Briefly: Pre-emergence action against LOLRI, 1280 g/ha. In kind it is in vivo, Lolium rigidum. The conditions noted are these: visual scoring after about 3 weeks vs untreated controls, 100% = plants have died, 0% = like control plants. An outline of the steps:
(§1)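 Weed seeds sown in sandy loam in pots, covered with soil; compound as WP or EC applied to soil surface as aqueous suspension/emulsion with 0.5% additive at 600 L/ha water. Greenhouse, good growth conditions; visual % damage vs untreated controls after about 3 weeks (100% = plants dead, 0% = like control).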

The test system of a further experiment is VERPE. Description: Pre-emergence action against VERPE, 1280 g/ha. It counts as in vivo, Veronica persica. As to conditions: scored visually after about 3 weeks vs untreated controls (100% = plants have died). The gist of the method: as §1
Another experiment relates to ECHGC. Description: Pre-emergence action at 320 g/ha against ECHGC. The conditions noted are these: visual scoring after about 3 weeks vs untreated controls. In kind it is in vivo, Echinochloa crus-galli. The gist of the method:
(§2)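 Visual scoring in percent against untreated controls, about 3 weeks after treatment, where 100% means dead plants and 0% means no difference. Compounds were applied as aqueous suspension or emulsion (WP or EC, plus 0.5% additive) onto soil covering freshly sown seeds, at 600 l/ha water.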

Experiment [2] concerns LOLRI. Description: Pre-emergence action at 320 g/ha against LOLRI. In kind it is in vivo, Lolium rigidum. As to conditions: visual scoring after about 3 weeks vs untreated controls. The gist of the method:
as §2

In experiment [3] the test system is STEME. Briefly: Pre-emergence action at 320 g/ha against STEME. As to conditions: greenhouse, scored visually after about 3 weeks vs untreated controls, 100% = plants have died, 0% = like control plants. It counts as in vivo, Stellaria media. From the text: (§3) b) Seeds of monocotyledonous and dicotyledonous weed plants and crop plants are placed in plastic or organic planting pots and covered with soil. The compounds of the invention, formulated in the form of wettable powders (WP) or as emulsion concentrates (EC), are then applied onto the surface of the covering soil as aqueous suspension or emulsion with addition of 0.5% additive at a water application rate of 600 l/ha (converted). After the treatment, the pots are placed in a greenhouse and kept under good growth conditions for the trial plants. After about 3 weeks, the effect of the preparations is scored visually in comparison with untreated controls as percentages. For example, 100% activity=the plants have died, 0% activity=like control plants. Tables 13 to 26 below show the effects of selected compounds of the general formula (I) on various harmful plants and at an application rate corresponding to 320 g/ha, which were obtained by the experimental procedure mentioned above.

Another experiment deals with ECHCG. Briefly: Post-emergence action against ECHCG, 1.28 kg/ha. It counts as in vivo, Echinochloa crus-galli. As to conditions: dosage 1280 g/ha, visual rating about 3 weeks after treatment vs untreated controls. The gist of the method: (§4)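 Spray at one-leaf stage with WP/EC + 0.5% additive, 600 L water/ha. Greenhouse, optimum conditions, ~3 wk. Visual % control vs untreated; 0 = no effect, 100 = dead.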

Experiment [4] relates to STEME. Briefly: Post-emergence action against STEME, 1.28 kg/ha. In kind it is in vivo, Stellaria media. The conditions noted are these: dosage 1280 g/ha, visual rating about 3 weeks after treatment vs untreated controls (100% = plants died). An outline of the steps:
as §4

The next experiment concerns SETVI. Briefly: Post-emergence action at 320 g/ha against SETVI. It counts as in vivo, Setaria viridis. The conditions noted are these: visual rating about 3 weeks after treatment vs untreated controls. The gist of the method:
(§5)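 Greenhouse pot plants in sandy loam received a foliar spray of WP- or EC-formulated compound at the one-leaf stage. Percent activity against untreated controls was assessed visually around three weeks later.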

For another experiment, the system named is AVEFA. Briefly: Post-emergence action at 320 g/ha against AVEFA. As to conditions: visual rating about 3 weeks after treatment vs untreated controls. In kind it is in vivo. An outline of the steps: as §5
The subject of experiment [5] is HORMU. Briefly: Post-emergence action at 320 g/ha against HORMU. In kind it is in vivo, Hordeum murinum. As to conditions: visual rating about 3 weeks after treatment vs untreated controls. From the text:
Accordingly, the compounds of the invention have good herbicidal action against a broad spectrum of weed grasses and broad-leaved weeds and are therefore suitable for controlling unwanted vegetation by the post-emergence method. • b) Seeds of monocotyledonous and dicotyledonous weeds and crop plants are placed in sandy loam in plastic or organic planting pots, covered with soil and cultivated in a greenhouse under controlled growth conditions. 2 to 3 weeks after sowing, the test plants are treated at the one-leaf stage. The compounds of the invention, formulated in the form of wettable powders (WP) or as emulsion concentrates (EC), are then sprayed onto the green parts of the plants as aqueous suspension or emulsion with addition of 0.5% additive at a water application rate of 600 l/ha (converted). After the test plants have been kept in the greenhouse under optimum growth conditions for about 3 weeks, the activity of the preparations is rated visually in comparison to untreated controls. For example, 100% activity=the plants have died, 0% activity=like control plants. Tables 39 to 49 below show the effects of selected compounds of the general formula (I) according to Tables 1 and 2 on various harmful plants and at an application rate corresponding to 320 g/ha, which were obtained by the experimental procedure mentioned above.

For experiment [6], the system named is KCHSC. Description: Pre-emergence action against KCHSC, 1280 g/ha. It counts as in vivo, Bassia scoparia. As to conditions: scored visually after about 3 weeks vs untreated controls (100% = plants have died). The gist of the method: as §1
In experiment [7] the test system is ABUTH. Briefly: Pre-emergence action at 320 g/ha against ABUTH. It counts as in vivo, Abutilon theophrasti. As to conditions: greenhouse, scored visually after about 3 weeks vs untreated controls, 100% = plants have died, 0% = like control plants. An outline of the steps:
as §2

Another experiment has as its system PHBPU. Description: Pre-emergence action at 320 g/ha against PHBPU. It counts as in vivo. As to conditions: visual scoring after about 3 weeks vs untreated controls. The gist of the method:
as §2

The subject of the next experiment is ALOMY. Description: Post-emergence action against ALOMY, 1.28 kg/ha. The conditions noted are these: dosage 1280 g/ha, visual rating about 3 weeks after treatment vs untreated controls. It counts as in vivo, Alopecurus myosuroides. The gist of the method:
as §4

For experiment [8], the system named is ABUTH. Briefly: Post-emergence action against ABUTH, 1.28 kg/ha. It counts as in vivo, Abutilon theophrasti. The conditions noted are these: dosage 1280 g/ha, visual rating about 3 weeks after treatment vs untreated controls (100% = plants died). The gist of the method: as §4
The test system of experiment [9] is KCHSC. Description: Post-emergence action against KCHSC, 1.28 kg/ha. The conditions noted are these: dosage 1280 g/ha, visual rating about 3 weeks after treatment vs untreated controls (100% = plants died). It counts as in vivo, Bassia scoparia. The gist of the method: as §4
Experiment [10] deals with ABUTH. Briefly: Post-emergence action at 320 g/ha against ABUTH. It counts as in vivo, Abutilon theophrasti. The conditions noted are these: visual rating about 3 weeks after treatment vs untreated controls. The gist of the method: as §5
The subject of experiment [11] is HORMU. Briefly: Pre-emergence action at 320 g/ha against HORMU. It counts as in vivo, Hordeum murinum. As to conditions: greenhouse, scored visually after about 3 weeks vs untreated controls, 100% = plants have died, 0% = like control plants.
From the text: as §3

Turning to `O=C(O)COc1nn(-c2ccccc2F)c(-c2ccnc(F)c2)c1Br` [VIII-004], the “Pre-emergence action against LOLRI” value in the experiment with LOLRI [1] was 100%. Also, the “Pre-emergence action against VERPE” value in the experiment on VERPE is listed as 90%. For the same compound, the “Pre-emergence action against ECHGC in %” value in the experiment on ECHGC is recorded as 90%. Further, the “Pre-emergence action against LOLRI in %” value with LOLRI [2] is on record as 90%. Moreover, in the experiment on STEME [3], the “Pre-emergence action at 320 g/ha against STEME in %” value is 90%. In the experiment with ECHCG, the “Post-emergence action against ECHCG” value was determined as 90%. Further, in the experiment with STEME [4], the “Post-emergence action against STEME” value stood at 100%. In the experiment with SETVI, the “Post-emergence action against SETVI in %” value stood at 80%. Also, the “Post-emergence action against AVEFA in %” value in the experiment on AVEFA was 100%. Besides, the “Post-emergence action against HORMU in %” value with HORMU [5] stood at 90%.
With `COC(=O)[C@@H](C)Oc1nn(-c2ccccc2)c(-c2cccnc2)c1Br` [VII-008], the “Pre-emergence action against LOLRI” value with LOLRI [1] turned out to be 100%. In the experiment on KCHSC [6], the “Pre-emergence action against KCHSC” value was 90%. In addition, in the experiment with VERPE, the “Pre-emergence action against VERPE” value turned out to be 100%. Also, in the experiment with ECHGC, the “Pre-emergence action against ECHGC in %” value is recorded as 80%. The “Pre-emergence action against LOLRI in %” value in the experiment on LOLRI [2] came out at 100%. In addition, the “Pre-emergence action at 320 g/ha against ABUTH in %” value with ABUTH [7] came out at 80%. Moreover, the “Pre-emergence action against PHBPU in %” value in the experiment on PHBPU was found to be 80%. The “Post-emergence action against ALOMY” value in the experiment with ALOMY was 100%. Moreover, in the experiment on ECHCG, the “Post-emergence action against ECHCG” value is 100%. Moreover, the “Post-emergence action against ABUTH” value with ABUTH [8] was 90%. In the experiment on KCHSC [9], the “Post-emergence action against KCHSC” value was 90%. Besides, in the experiment on STEME [4], the “Post-emergence action against STEME” value was found to be 100%. In the experiment with ABUTH [10], the “Post-emergence action against ABUTH in %” value turned out to be 90%. Besides, the “Post-emergence action against SETVI in %” value in the experiment on SETVI is 100%. In addition, the “Post-emergence action against AVEFA in %” value in the experiment with AVEFA is 90%.
`COC(=O)COc1nn(-c2ccc(F)cc2)c(-c2ccc(F)nc2)c1Br` [VII-002]: in the experiment with LOLRI [1], the “Pre-emergence action against LOLRI” value was 100%. Besides, the “Pre-emergence action against ECHGC in %” value in the experiment with ECHGC is recorded as 90%. The “Pre-emergence action at 320 g/ha against STEME in %” value in the experiment on STEME [3] is recorded as 90%. Also, the “Pre-emergence action at 320 g/ha against HORMU in %” value with HORMU [11] was 80%. For the same compound, in the experiment with ECHCG, the “Post-emergence action against ECHCG” value is 90%. Further, the “Post-emergence action against ABUTH” value in the experiment with ABUTH [8] stood at 90%. In addition, in the experiment on STEME [4], the “Post-emergence action against STEME” value is listed as 90%. Moreover, in the experiment on ABUTH [10], the “Post-emergence action against ABUTH in %” value was 80%. For the same compound, the “Post-emergence action against SETVI in %” value in the experiment on SETVI is reported as 80%. Moreover, the “Post-emergence action against AVEFA in %” value with AVEFA was determined as 100%. The “Post-emergence action against HORMU in %” value in the experiment on HORMU [5] amounted to 90%.
For the compound `CCC(Oc1nn(-c2ccccc2F)c(-c2ccc(F)nc2)c1Br)C(=O)OC` (stereo not shown) [VII-029], in the experiment with LOLRI [1], the “Pre-emergence action against LOLRI” value is 100%. Moreover, in the experiment on KCHSC [6], the “Pre-emergence action against KCHSC” value was 90%. Besides, in the experiment on VERPE, the “Pre-emergence action against VERPE” value was 100%. Also, the “Pre-emergence action against LOLRI in %” value in the experiment on LOLRI [2] was 90%. The “Pre-emergence action at 320 g/ha against STEME in %” value with STEME [3] worked out at 90%. Moreover, the “Pre-emergence action at 320 g/ha against HORMU in %” value with HORMU [11] was found to be 90%. Besides, in the experiment with ALOMY, the “Post-emergence action against ALOMY” value amounted to 100%. Further, the “Post-emergence action against ECHCG” value with ECHCG is on record as 100%. Also, the “Post-emergence action against KCHSC” value in the experiment with KCHSC [9] was determined as 90%. Further, the “Post-emergence action against STEME” value with STEME [4] is on record as 100%. Besides, the “Post-emergence action against ABUTH in %” value in the experiment on ABUTH [10] turned out to be 80%. Besides, in the experiment on AVEFA, the “Post-emergence action against AVEFA in %” value is given as 90%. Also, the “Post-emergence action against HORMU in %” value in the experiment with HORMU [5] stood at 90%.
